Measured values reported in patent US6677141B2, “Edible compositions of Bacillus subtilis natto cells containing water-soluble vitamin K” (Honda Trading Corporation, priority 1998, dated 2004).

Tests used:
[1] = MK-7 level in plasma after oral ingestion by healthy adults (HPLC); type: in vivo, human (healthy adults)
Description: The measurement of the amounts of MK-7, MK-4, and vitamin K1 by the high-performance liquid chromatography (HPLC) makes use of the phenomenon that vitamin K is reduced by a platinum-alumina catalyst into a hydroquinone compound and made to form a fluorescent substance. To be more specific, this measurement is carried out under the following conditions.
Then, five healthy adults were each caused to ingest 1 g of the dry cells at 10 o'clock every morning. After the elapse of a prescribed interval, blood was collected from each of the healthy adults and was tested for MK-7 level in the plasma. The time-course changes of MK-7 level in the plasma were investigated.
Five healthy adults were each caused to ingest 1 g of dry cells (containing 1.8×10^10 live cells) of Nitto strain (made by Nitto Yakuhin Kogyo K.K. in Kyoto) at 10 o'clock every morning. Then, blood was collected from the adults along the course of time. The plasma was separated from the collected blood and tested for MK-7 level in the plasma in the same manner as in Example 1.
As a control, five healthy adults were caused to ingest purified MK-7 in place of the dry cells of Bacillus subtilis natto mentioned above. The plasma similarly obtained from each of the healthy adults was tested for MK-7 level in the plasma.
The cultured product thus obtained was washed with distilled water and then freeze-dried. Five healthy adults (A to E) were each caused to ingest an enteric capsule in which 1 g of freeze-dried product (containing 5×10^11 cells/g of dried product) was filled. In this case, the MK-7 content was determined by the Soxhlet-HPLC method method, to find to be 708.0 μg/g of dried product. At prescribed points, blood was collected from the adults along the course of time. The plasma MK-7 level was tested in the same manner as in Example 1.
Five healthy adults (21 to 63 years old, male) requested to abstain from breakfast were each made to ingest 1,000 μg of the water-soluble vitamin K derivative containing the water-soluble MK-7 derivative prepared in Example 9 at 10 o'clock in the morning. Blood was collected from the healthy adults along the course of time after the ingestion and measured for the level of the water-soluble MK-7 derivative in plasma. As a control, the experiment was repeated with the ingestion of 1,000 μg of purified MK-7 instead.

[2] = Photostability: amount of MK-7 on exposure to the light from a fluorescent lamp; type: physicochemical; settings: room temperature
Description: This dry MK-7 was exposed to the light from a fluorescent lamp at room temperature for 5 hours. In this case, the amount of MK-7 was measured along the course of time in the same manner as in Example 6. The results are shown in FIG. 7 (indicated by empty circle (◯) marks).
The fat-soluble MK-7 thus prepared was dried to obtain a dry product of MK-7. This dry product of MK-7 was irradiated with the light from a fluorescent lamp at room temperature for 5 hours and then tested for the fat-soluble MK-7 content in the same manner as in Example 6. The results are shown in FIG. 7 (indicated by filled square (▪) marks).

[3] = oral, 1 g dry cells (about 1.8 × 10^10 cells/g) or about 51.0 μg purified MK-7, average ± SD, n = 5

SMILES | Level in plasma on the 24th hour after the ingestion ([1]; Example 14, oral 1,000 μg) [ng/mL] | Concentration of MK-7 in plasma (after the elapse of) 0 hour ([1]; before ingestion, oral, 1 g dry cells (about 1.8 × 10^10 cells/g) or about 51.0 μg purified MK-7, average ± standard deviation, n = 5) | Concentration of MK-7 in plasma (after the elapse of) 4 hours [1, 3] | Concentration of MK-7 in plasma (after the elapse of) 8 hours [1, 3] | Concentration of MK-7 in plasma (after the elapse of) 12 hours [1, 3] | Concentration of MK-7 in plasma (after the elapse of) 24 hours [1, 3] | Concentration of MK-7 in plasma (after the elapse of) 32 hours [1, 3] | Concentration of MK-7 in plasma (after the elapse of) 48 hours [1, 3] | Exposure time to the fluorescent lamp after which the amount of MK-7 could not be measured [2]
CC(C)=CCC/C(C)=C/CC/C(C)=C/CC/C(C)=C/CC/C(C)=C/CC/C(C)=C/CC/C(C)=C/CC1=C(C)C(=O)c2ccccc2C1=O [Purified MK-7, menaquinone-7] | 3.2 ± 2.3 | 1.3 ± 1.1 | 11.2 ± 2.8 | 7.3 ± 1.6 | 4.3 ± 1.0 | 2.2 ± 1.0 | 1.4 ± 0.7 ^┘ | 1.4 ± 0.9 ^┘ | –
CC(C)=CCC/C(C)=C/CC/C(C)=C/CC/C(C)=C/CC/C(C)=C/CC/C(C)=C/CC/C(C)=C/CC1=C(C)C(=O)c2ccccc2C1=O [fat-soluble MK-7] | – | – | – | – | – | – | – | – | about 3 hours
